Assay results: US20230027361A1, “METTL3 MODULATORS” (priority 2019, published 2023)
Read-outs that look alike come from different tables or passages of the source.

How the values were obtained:
[1] = test system: MOLM-13 cells; assay: MOLM-13 96 Hour Cell Proliferation Assay; type: cell-based; details: Homo sapiens
Protocol: MOLM-13 (DSMZ) cells were seeded at 600 cells per well in a volume of 44 μL in a Greiner Bio-One CELLSTAR™ 384 Well Polystyrene Cell Culture clear bottom microplate in RPMI 1640 media containing 10% fetal bovine serum using a Multidrop Combi (ThermoFisher Scientific). Cells were incubated overnight at 37° C. in a humidified tissue culture incubator. To prevent evaporation or to reduce edge effect, add 50 μL or more H2O to an empty plate, cover, and place on top of the cell plates. The Mosquito® HTS Liquid Handler was used to make a compound/media intermediate plate by aliquoting 1 μL of compound from the initial compound dilution plate (concentrations ranging from 10.0 mM to 38.0 nM in 100% DMSO) into Bio-One 384-well polypropylene conical bottom microplate containing 49 μL of media containing the appropriate serum (50-fold dilution, 2% DMSO, compound concentrations ranging from 200.0 μM and […]). The Apricot liquid handling system was used to transfer 6.2 μL compounds from the intermediate plate into the seeding plate containing 44 μL cells (8-fold dilution spanning concentrations 25.0 μM to […], 0.25% DMSO final), and placed in a humidified tissue culture incubator at 37° C. After 96 hours, 25 μL of Cell Titer-Glo reagent (Promega) was added to each well using an Integra liquid handling system. The plate was protected from light using TopSeal-A (Black) film over the entire plate, added White Bottom seal film on the bottom of the entire plate for a better reading on the Envision, and placed on an IKA plate shaker for at 300 rpm for 10 minutes at room temperature. The plate was read on an EnVision plate reader (Perkin Elmer) using the Ultra Sensitive Luminescence protocol. Data analysis was performed by normalizing the raw luminescence units to an average of the positive control values for staurosporine (100% cell death) and the negative control values for DMSO (0% cell death). An IC50 was calculated using a 4-parameter logistic nonlinear regression model in GraphPad Prism.

[2] = target: PRMT5-MEP50 (Homo sapiens, UniProt O14744); assay: PRMT5 Assay (PRMT5 biochemical assay)
Protocol: Assays were performed in a 25 μl-volume in 384-well V-bottom polypropylene microplates (Greiner Bio-One, cat. No. 781280) at ambient temperature. Optimized 1× assay buffer was 20 mM Tris-HCl pH 8.0, 1 mM DTT, […]. For compound screening PRMT5-MEP50 (final concentration, f.c.=2.5 nM) was added using a Multidrop Combi (ThermoFisher Scientific, Waltham, Mass.) and preincubated for 5 min. Reactions were started by adding 3′ biotinylated histone H4 peptide acetylated on serine 1 (Ac-[…]-Biotin) (f.c.=100 nM) and 3H-SAM (f.c.=250 nM) substrates. Reactions proceeded for 60 minutes and were quenched with excess non-radioactive SAM (f.c.=15 μM). The reactions were then transferred to streptavidin-coated flashplates and incubated for 2 hours at 25° C. Following two washing cycles with 0.1% Tween-20, the plates were sealed and read on a TopCount (PerkinElmer, Waltham, Mass.) plate-based scintillation counter. For determination of kinetic parameters, reaction times were optimized so that measurements were taken during the initial velocity phase of the reaction.

[3] = target: METTL3/METTL14 (Homo sapiens, UniProt Q86U44); assay: METTL3-14 Standard Enzyme Assay (METTL3 biochemical assay)
Protocol: Assays were performed in a 25 μl-volume in 384-well V-bottom polypropylene microplates (Greiner Bio-One, cat. No. 781280) at ambient temperature. Optimized 1× assay buffer was 20 mM HEPES pH 7.5, 50 mM KCl, 250 μM MgCl2, 1 mM DTT, 0.01% Tween, 0.01% BSG, 0.004 U/μl RNAseOUT (cat. No. 10777019, ThermoFisher Scientific, Waltham, Mass.). For compound screening METTL3/METTL14 (final concentration, f.c.=2.5 nM) was added using a Multidrop Combi (ThermoFisher Scientific, Waltham, Mass.) and preincubated for 5 min. Reactions were started by adding 3′ biotinylated RNA ([…]-biotin) (f.c.=100 nM) and 3H-SAM (f.c.=100 nM) substrates. Reactions proceeded for 30 minutes and were quenched with excess non-radioactive SAM (f.c.=15 μM). The reactions were then transferred to streptavidin-coated flashplates and incubated for 2 hours at 25° C. Following two washing cycles with 0.1% Tween-20, the plates were sealed and read on a TopCount (PerkinElmer, Waltham, Mass.) plate-based scintillation counter. For determination of kinetic parameters, reaction times were optimized so that measurements were taken during the initial velocity phase of the reaction.

[4] = target: METTL1/WDR4 (Homo sapiens, UniProt Q9UBP6); assay: METTL1 Assay (METTL1 biochemical assay)
Protocol: Assays were performed in a 25 μl-volume in 384-well V-bottom polypropylene microplates (Greiner Bio-One, cat. No. 781280) at ambient temperature. Optimized 1× assay buffer was 20 mM HEPES pH 7.5, 50 mM KCl, 250 μM MgCl2, 1 mM DTT, 0.01% Tween, 0.01% BSG, 0.004 U/μl RNAseOUT (cat. No. 10777019, ThermoFisher Scientific, Waltham, Mass.). For compound screening METTL1/WDR4 (final concentration, f.c.=6.25 nM) was added using a Multidrop Combi (ThermoFisher Scientific, Waltham, Mass.) and preincubated for 5 min. Reactions were started by adding 3′ biotinylated RNA ([…]-biotin) (f.c.=25 nM) and 3H-SAM (f.c.=60 nM) substrates. Reactions proceeded for 20 minutes and were quenched with excess non-radioactive SAM (f.c.=15 μM). The reactions were then transferred to streptavidin-coated flashplates and incubated for 2 hours at 25° C. Following two washing cycles with 0.1% Tween-20, the plates were sealed and read on a TopCount (PerkinElmer, Waltham, Mass.) plate-based scintillation counter. For determination of kinetic parameters, reaction times were optimized so that measurements were taken during the initial velocity phase of the reaction.

[5] = read-out: PRMT5 IC50, PRMT5 biochemical assay
[6] = read-out: METTL3 IC50, METTL3 biochemical assay
[7] = read-out: METTL1 IC50; METTL1 biochemical assay
[8] = PRMT5 biochemical assay, read-out: PRMT5 IC50
[9] = METTL3 biochemical assay, read-out: METTL3 IC50
[10] = METTL1 biochemical assay; read-out: METTL1 IC50

Chain of PRMT5-MEP50 (O14744 whole entry): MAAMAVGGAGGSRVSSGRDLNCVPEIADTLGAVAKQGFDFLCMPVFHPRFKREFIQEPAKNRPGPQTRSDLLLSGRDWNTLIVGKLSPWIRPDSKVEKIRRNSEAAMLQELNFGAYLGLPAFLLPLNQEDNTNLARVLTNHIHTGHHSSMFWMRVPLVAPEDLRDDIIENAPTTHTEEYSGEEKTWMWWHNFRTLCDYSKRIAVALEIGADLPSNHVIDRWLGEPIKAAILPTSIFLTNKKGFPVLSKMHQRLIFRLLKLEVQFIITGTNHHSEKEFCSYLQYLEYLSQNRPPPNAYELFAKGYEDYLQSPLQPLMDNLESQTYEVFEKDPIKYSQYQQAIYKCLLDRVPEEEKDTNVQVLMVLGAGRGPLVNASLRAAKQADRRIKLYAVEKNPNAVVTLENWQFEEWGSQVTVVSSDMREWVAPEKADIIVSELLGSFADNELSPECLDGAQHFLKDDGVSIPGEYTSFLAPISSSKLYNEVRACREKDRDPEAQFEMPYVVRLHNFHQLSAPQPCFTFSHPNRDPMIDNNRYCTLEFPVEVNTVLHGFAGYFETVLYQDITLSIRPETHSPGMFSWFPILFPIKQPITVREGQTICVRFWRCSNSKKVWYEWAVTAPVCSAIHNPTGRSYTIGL
Chain of PRMT5-MEP50 (Q9BQA1 whole entry partner): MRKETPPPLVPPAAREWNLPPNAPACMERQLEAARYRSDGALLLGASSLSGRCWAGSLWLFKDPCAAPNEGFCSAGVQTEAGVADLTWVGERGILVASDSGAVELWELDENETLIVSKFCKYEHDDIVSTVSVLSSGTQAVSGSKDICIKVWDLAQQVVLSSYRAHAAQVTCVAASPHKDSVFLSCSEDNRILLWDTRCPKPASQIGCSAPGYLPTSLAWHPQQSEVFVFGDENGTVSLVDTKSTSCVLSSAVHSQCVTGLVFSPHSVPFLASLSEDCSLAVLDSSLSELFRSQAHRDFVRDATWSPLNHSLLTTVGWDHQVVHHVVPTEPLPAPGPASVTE
Chain of METTL1/WDR4 (Q9UBP6 whole entry, species assumed): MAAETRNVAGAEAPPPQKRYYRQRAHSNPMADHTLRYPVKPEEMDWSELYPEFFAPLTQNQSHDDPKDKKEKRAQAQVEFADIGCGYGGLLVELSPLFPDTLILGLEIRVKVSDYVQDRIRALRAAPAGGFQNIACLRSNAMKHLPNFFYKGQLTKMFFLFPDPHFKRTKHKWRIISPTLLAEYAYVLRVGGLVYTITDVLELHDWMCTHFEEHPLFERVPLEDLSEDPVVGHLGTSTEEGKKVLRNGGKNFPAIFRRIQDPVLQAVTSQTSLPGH
Chain of METTL1/WDR4 (P57081 whole entry partner, species assumed): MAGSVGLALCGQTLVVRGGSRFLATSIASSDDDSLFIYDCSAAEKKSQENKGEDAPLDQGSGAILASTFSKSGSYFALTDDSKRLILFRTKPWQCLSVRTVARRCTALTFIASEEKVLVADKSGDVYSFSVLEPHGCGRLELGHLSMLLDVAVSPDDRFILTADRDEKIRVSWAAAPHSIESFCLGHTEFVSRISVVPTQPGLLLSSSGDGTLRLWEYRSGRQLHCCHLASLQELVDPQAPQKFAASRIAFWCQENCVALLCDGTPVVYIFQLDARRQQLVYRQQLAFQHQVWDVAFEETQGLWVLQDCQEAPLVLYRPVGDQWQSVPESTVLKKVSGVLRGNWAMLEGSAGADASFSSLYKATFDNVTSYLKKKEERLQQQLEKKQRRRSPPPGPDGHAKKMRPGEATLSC
Chain of METTL3/METTL14 (Q86U44 whole entry, species assumed): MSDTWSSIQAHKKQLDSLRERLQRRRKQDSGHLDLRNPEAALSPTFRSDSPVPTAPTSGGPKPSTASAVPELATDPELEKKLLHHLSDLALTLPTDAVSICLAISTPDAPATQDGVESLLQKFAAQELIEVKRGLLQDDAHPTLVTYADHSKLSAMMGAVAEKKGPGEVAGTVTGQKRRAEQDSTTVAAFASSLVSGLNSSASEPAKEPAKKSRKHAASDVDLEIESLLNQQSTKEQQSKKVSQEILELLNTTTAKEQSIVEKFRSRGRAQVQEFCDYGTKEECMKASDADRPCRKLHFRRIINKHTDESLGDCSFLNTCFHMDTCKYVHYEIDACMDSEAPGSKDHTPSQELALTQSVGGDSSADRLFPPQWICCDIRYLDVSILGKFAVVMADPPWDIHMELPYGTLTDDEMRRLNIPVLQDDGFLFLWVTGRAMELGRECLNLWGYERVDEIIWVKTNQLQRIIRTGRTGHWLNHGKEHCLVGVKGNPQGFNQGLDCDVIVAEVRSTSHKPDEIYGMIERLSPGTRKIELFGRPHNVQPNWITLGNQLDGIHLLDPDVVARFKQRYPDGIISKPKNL
Chain of METTL3/METTL14 (Q9HCE5 whole entry partner, species assumed): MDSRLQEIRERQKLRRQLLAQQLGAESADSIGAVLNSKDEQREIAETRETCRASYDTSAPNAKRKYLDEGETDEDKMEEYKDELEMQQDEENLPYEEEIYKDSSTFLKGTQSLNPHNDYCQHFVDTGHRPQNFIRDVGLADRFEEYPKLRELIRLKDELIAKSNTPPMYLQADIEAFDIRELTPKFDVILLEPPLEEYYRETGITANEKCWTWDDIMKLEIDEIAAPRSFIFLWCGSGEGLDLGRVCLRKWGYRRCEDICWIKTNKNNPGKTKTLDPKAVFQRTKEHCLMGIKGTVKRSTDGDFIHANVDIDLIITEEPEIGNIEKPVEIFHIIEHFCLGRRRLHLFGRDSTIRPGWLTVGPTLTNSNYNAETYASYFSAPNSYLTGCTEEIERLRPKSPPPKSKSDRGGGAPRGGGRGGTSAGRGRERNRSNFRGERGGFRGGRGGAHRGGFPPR

Row | Structure (SMILES) | IC50 [4, 7] | IC50 [2, 8] | IC50 [3, 9] | further results
1 | CNc1ccc2ccc(OC[C@H]3O[C@@H](n4cc(-c5ccn(C(C)C)n5)c5c(N)ncnc54)[C@@H](F)[C@@H]3O)cc2n1 [I-2] |  |  |  | IC50 [1]: < 1 µM; IC50 [2, 5]: 0.1 to 1 µM; IC50 [3, 6]: < 0.01 µM
2 | Nc1ncnc2c1ccn2[C@@H]1C[C@H](CCc2ccc3cc[nH]c3c2)[C@@H](O)[C@H]1O [I-101] | > 1 µM | 0.1 to 1 µM | > 1 µM | 
3 | CCCNc1ncnc2c1ccn2[C@@H]1C[C@H](CCc2ccc3ccc(N)nc3c2)[C@@H](O)[C@H]1O [I-102] | > 1 µM | < 0.01 µM | > 1 µM | 
4 | Nc1ncnc2c1ccn2[C@@H]1C[C@H](CCc2ccc3cn[nH]c3c2)[C@@H](O)[C@H]1O [I-103] | > 1 µM | 0.01 to 0.1 µM | > 1 µM | 
5 | Nc1ncnc2c1ccn2[C@@H]1C[C@H](CCc2ccc3scnc3c2)[C@@H](O)[C@H]1O [I-104] | > 1 µM | < 0.01 µM | > 1 µM | 
6 | Nc1ncnc2c1ccn2[C@@H]1C[C@H](CCc2ccc3ccc(NCCO)nc3c2)[C@@H](O)[C@H]1O [I-105] | > 1 µM | < 0.01 µM | 0.1 to 1 µM | 
7 | Nc1ncnc2c1ccn2[C@@H]1C[C@H](CCc2ccc3[nH]ncc3c2)[C@@H](O)[C@H]1O [I-106] | > 1 µM | 0.1 to 1 µM | > 1 µM | 
8 | Nc1ccc2ccc(CC[C@H]3C[C@@H](n4cc(Br)c5c(N)ncnc54)[C@H](O)[C@@H]3O)cc2n1 [I-107] | > 1 µM | < 0.01 µM | 0.01 to 0.1 µM | 
9 | Nc1ccc2ccc(CC[C@H]3C[C@@H](n4ccc5c(N)ncnc54)[C@H](O)[C@@H]3O)cc2c1 [I-108] | > 1 µM | 0.1 to 1 µM | > 1 µM | 
10 | Nc1ccc2ccc(NC[C@H]3C[C@@H](n4ccc5c(N)ncnc54)[C@H](O)[C@@H]3O)cc2n1 [I-109] | > 1 µM | 0.01 to 0.1 µM | > 1 µM | 
11 | Nc1cccc2ccc(CC[C@H]3C[C@@H](n4ccc5c(N)ncnc54)[C@H](O)[C@@H]3O)cc12 [I-110] | > 1 µM | 0.1 to 1 µM | > 1 µM | 
12 | Nc1ncnc2c1ccn2[C@@H]1C[C@H](CCc2ccc3cc(C#Cc4ccccc4)cnc3c2)[C@@H](O)[C@H]1O [I-112] | > 1 µM | 0.01 to 0.1 µM | > 1 µM | 
13 | Nc1ncnc2c1ccn2[C@@H]1C[C@H](CCc2cccc(=O)[nH]2)[C@@H](O)[C@H]1O [I-113] | > 1 µM | 0.1 to 1 µM | > 1 µM | 
14 | COc1cccc(CC[C@H]2C[C@@H](n3ccc4c(N)ncnc43)[C@H](O)[C@@H]2O)n1 [I-114] | > 1 µM | > 1 µM | > 1 µM | 
15 | CC(C)Nc1ccc2ccc(CC[C@H]3C[C@@H](n4ccc5c(N)ncnc54)[C@H](O)[C@@H]3O)cc2n1 [I-116] | > 1 µM | < 0.01 µM | 0.01 to 0.1 µM | 
16 | Nc1ncnc2c1ccn2[C@@H]1C[C@H](CCc2cccnc2)[C@@H](O)[C@H]1O [I-117] | > 1 µM | 0.01 to 0.1 µM | > 1 µM | 
17 | Cc1nc(N)c2ccn([C@@H]3C[C@H](CCc4ccc5ccc(N)nc5c4)[C@@H](O)[C@H]3O)c2n1 [I-119] | > 1 µM | < 0.01 µM | > 1 µM | 
18 | Nc1ncnc2c1ccn2[C@@H]1C[C@H](CCc2ccc3ccc(NCc4ccccc4)nc3c2)[C@@H](O)[C@H]1O [I-121] | > 1 µM | < 0.01 µM | 0.1 to 1 µM | 
19 | Nc1ncnc2c1ccn2[C@@H]1C[C@H](CCc2ccc3ccc(Nc4ccccc4)nc3c2)[C@@H](O)[C@H]1O [I-122] | > 1 µM | < 0.01 µM | > 1 µM | 
20 | Nc1ccc2ccc(OC[C@H]3C[C@@H](n4ccc5c(N)ncnc54)[C@H](O)[C@@H]3O)cc2n1 [I-124] | > 1 µM | < 0.01 µM | 0.1 to 1 µM | 
21 | Nc1ncnc2c1ccn2[C@@H]1C[C@H](CCc2cnc3cccnc3c2)[C@@H](O)[C@H]1O [I-126] | > 1 µM | < 0.01 µM | > 1 µM | 
22 | Nc1ncnc2c1ccn2[C@@H]1C[C@H](CCc2ccc3cncnc3c2)[C@@H](O)[C@H]1O [I-127] | > 1 µM | < 0.01 µM | > 1 µM | 
23 | Nc1ncnc2c1ccn2[C@@H]1C[C@H](CCc2ccc3cccnc3n2)[C@@H](O)[C@H]1O [I-128] | > 1 µM | < 0.01 µM | > 1 µM | 
24 | CNc1ncnc2c1ccn2[C@@H]1C[C@H](CCc2ccc3ccc(N)nc3c2)[C@@H](O)[C@H]1O [I-129] | > 1 µM | < 0.01 µM | > 1 µM | 
25 | Nc1ccc2ccc(CC[C@H]3C[C@@H](n4ccc5c(N)ncnc54)[C@H](O)[C@@H]3O)cc2n1 [I-138] | > 1 µM | < 0.01 µM | 0.1 to 1 µM | 
26 | Nc1ccc2ccc(CO[C@H]3C[C@@H](n4ccc5c(N)ncnc54)[C@H](O)[C@@H]3O)cc2n1 [I-139] | > 1 µM | < 0.01 µM | < 0.01 µM | 
27 | CCc1cc(N)c2ccc(OC[C@H]3O[C@@H](n4cc(-c5ccn(C)n5)c5c(N)ncnc54)[C@@H](F)[C@@H]3O)cc2n1 [I-145] |  |  |  | IC50 [4, 10]: > 1 µM; IC50 [2, 5]: 0.1 to 1 µM; IC50 [3, 6]: < 0.01 µM
28 | CCCC(=O)c1cn([C@@H]2O[C@H](COc3ccc4ccc(NC)nc4c3)[C@@H](O)[C@@H]2F)c2ncnc(N)c12 [I-146] |  |  |  | IC50 [4, 10]: > 1 µM; IC50 [2, 5]: > 1 µM; IC50 [3, 6]: 0.01 to 0.1 µM
29 | CNc1ccc2ccc(OC[C@H]3O[C@@H](n4cc(-c5cc(C)n(C)n5)c5c(N)ncnc54)[C@@H](F)[C@@H]3O)cc2n1 [I-147] |  |  |  | IC50 [4, 10]: > 1 µM; IC50 [2, 5]: > 1 µM; IC50 [3, 6]: 0.01 to 0.1 µM
30 | CNc1ccc2ccc(OC[C@H]3O[C@@H](n4cc(-c5cn(C(C)C)cn5)c5c(N)ncnc54)[C@@H](F)[C@@H]3O)cc2n1 [I-233] |  |  |  | IC50 [4, 10]: > 1 µM; IC50 [2]: > 1 µM; IC50 [3]: 0.01 to 0.1 µM
